Test results reported in ChEMBL document CHEMBL5729039, “Macrocyclic fluorine substituted indole derivatives” (2022).

Columns and labels:
[1] = target: Apoptosis regulator Bcl-2 (Homo sapiens, UniProt P10415); assay: (§1) Biological Assay 2: BCL-2 Assay: In the assay 11 different concentrations of each compound (0.1 nM, 0.33 nM, 1.1 nM, 3.8 nM, 13 nM, 44 nM, 0.15 μM, 0.51 μM, 1.7 μM, 5.9 μM and 20 μM) were typically measured as duplicates in the same microtiter plate. For that, 100-fold concentrated DMSO solutions were prepared by serial dilutions (1:3.4) of a 2 mM stock solution in a clear, 384-well microtiter plate (Greiner Bio-One, Frickenhausen, Germany). From there, 50 nl were transferred in a dark test plate (Greiner Bio-One, Frickenhausen, Germany). The assay was initiated by addition of 2 μl of a 2,5-fold concentrated His-BCL-2 solution (usually for a 1 nM end concentration in 5 μl reaction volume) in aqueous assay buffer [50 mM Tris/HCl pH 7, 100 mM sodium chloride (NaCl), 50 mM potassium fluoride (KF), 0.005% Tween-20, 2 mM DTT, 0.1% bovine gamma globulin (BGG)] to the compounds in the assay plate. This was followed by a 10-minute incubation step at 22° C. for pre-equilibration of the putative complex between His-BCL-2 and the compounds. After that, 3 μl of a 1.67-fold concentrated solution (in assay buffer) consisting of Bad BH3-derived peptide (1 nM end concentration) and TR-FRET detection reagents [1.67 nM anti-His-Eu cryptate and 1.67 nM streptavidin-XL665 (both from Cisbio Bioassays, Codolet, France)], were added.
Chain of Apoptosis regulator Bcl-2 (P10415 whole entry): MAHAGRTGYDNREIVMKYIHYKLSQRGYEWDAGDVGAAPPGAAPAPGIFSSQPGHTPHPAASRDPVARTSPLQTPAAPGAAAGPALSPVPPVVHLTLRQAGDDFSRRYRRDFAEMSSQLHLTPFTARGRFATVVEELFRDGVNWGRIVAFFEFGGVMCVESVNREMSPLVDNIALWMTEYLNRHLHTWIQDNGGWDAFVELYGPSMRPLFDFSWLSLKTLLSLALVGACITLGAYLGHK

Bcl-2-like protein 1 = Bcl-2-like protein 1 (Homo sapiens, UniProt Q07817); assay: as §1, with “Biological Assay: BCL-XL Assay: In” for “Biological Assay 2: BCL-2 Assay: In”, “2,5-fold concentrated His-BCL-XL solution (usually” for “2,5-fold concentrated His-BCL-2 solution (usually”, “(NaCl), […]” for “(NaCl), 50 mM potassium fluoride”, “complex between His-BCL-XL and the” for “complex between His-BCL-2 and the”
Chain of Bcl-2-like protein 1 (Q07817 whole entry): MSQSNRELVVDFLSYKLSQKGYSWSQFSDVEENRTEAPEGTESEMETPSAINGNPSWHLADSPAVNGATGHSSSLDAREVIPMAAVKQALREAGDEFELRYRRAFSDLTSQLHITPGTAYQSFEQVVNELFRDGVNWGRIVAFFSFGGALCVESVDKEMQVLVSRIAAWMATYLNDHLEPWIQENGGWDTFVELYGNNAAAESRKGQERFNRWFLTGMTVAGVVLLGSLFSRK

Q: With `CCc1c2c(nn1C)COCCCCn1c(C(=O)O)c(CCCOc3ccc(F)c4ccccc34)c3ccc(F)c-2c31` as the compound, how does the IC50 [1] read?
A: Its IC50 is over 20 µM.

Q: And the IC50 (Bcl-2-like protein 1)?
A: The IC50 was over 20 µM.

Q: Which IC50 [1] does the source give for `Cc1c2c(nn1C)COCCCCn1c(C(=O)O)c(CCCOc3cccc4cc(F)ccc34)c3ccc(F)c-2c31` here?
A: Its IC50 is over 20 µM.

Q: What about the IC50 (Bcl-2-like protein 1) of the same compound?
A: Its IC50 is over 20 µM.

Q: Which results are given for `CCc1nn(C)c2c1-c1c(F)ccc3c(CCCOc4cccc5cc(F)ccc45)c(C(=O)O)n(c13)CCCCOC2`?
A: IC50 [1]: > 20 µM; IC50 (Bcl-2-like protein 1): > 20 µM

Q: What does the source list for `CCc1c2c(nn1C)COCCCCn1c(C(=O)O)c(CCCOc3cccc4ccccc34)c3ccc(F)c-2c31`?
A: IC50 [1]: > 20 µM; IC50 (Bcl-2-like protein 1): > 20 µM

Q: Which results are given for `Cc1c2c(nn1C)C[N+](C)(C)CCCCn1c(C(=O)O)c(CCCOc3cccc4ccccc34)c3ccc(F)c-2c31`?
A: IC50 [1]: > 20 µM; IC50 (Bcl-2-like protein 1): > 20 µM

Q: Which IC50 [1] does the source give for `Cc1c2c(nn1C)COCCCCn1c(C(=O)O)c(CCCOc3cccc4ccccc34)c3ccc(F)c-2c31` here?
A: The IC50 was over 20 µM.

Q: And the IC50 (Bcl-2-like protein 1)?
A: Its IC50 is over 20 µM.
